Measured values: patent US7303887B2, “Mule: Mcl-1 ubiquitination ligase E3” (Board of Regents, The University of Texas System, priority 2005, dated 2007)
Ends that are not written are not given here. Peptide text beside a SMILES is read from it. * marks the point of attachment. Cbz = O=C(OCc1ccccc1)*

Assays:
proteasome = assay: Western blotting for Mcl-1 in Hela cells treated with proteasome inhibitor; assay type: cell-based, human; conditions: anti-Mcl-1 western blotting
Description: Proteins targeted for proteasome degradation are usually modified by a poly-ubiquitin chain (Hershko and Ciechanover, 1998). To test whether Mcl-1 is ubiquitinated, we treated Hela cells with a proteasome inhibitor MG132 to block the proteasome activity and performed western blotting analysis for Mcl-1 to test for the accumulation of higher molecular weight forms that could be ubiquitin modified. […] To verify these higher molecular weight bands were indeed caused by polyubiquitin conjugation of Mcl-1, the protein was immunoprecipitated by an anti-Mcl-1 antibody and the immuno-precipitate was probed by an anti-ubiquitin antibody.

Mcl-1 and Mule = assay: Co-immunoprecipitation of Mule with Flag-Mcl-1 from Flag-Mcl-1 expressing cells; assay type: cell-based; conditions: anti-Flag immunoprecipitation
Description: We next tested whether Mule interacts with Mcl-1 in vivo. Cell extracts from Flag-Mcl-1 expressing cells were immunoprecipitated with an anti-Flag monoclonal antibody. The immunoprecipitates were then subjected to SDS-PAGE and immunoblotted with antibodies against Flag or Mule. The antibody against Flag precipitated Flag-Mcl-1 in Flag-Mcl-1 expressing cells but not in the control cells. The Flag antibody also precipitated Mule, and the amount of co-precipitated Mcl-1 and Mule increased upon treatment with the proteasome inhibitor MG132.

U2OS cells [1] = assay: Cell death induced by DNA damaging agents with Mule knocked down; assay type: cell-based, human; conditions: for cell death induced by the agent: Mule knocked down versus not
Description: The Mule shRNA construct was co-transfected with tetracycline repressor expression construct into 5×10^5 attached U2OS cells grown in DMEM with 10% FBS using Lipofectamine transfection reagent (Invitrogen) according to the manufacturer's protocol. One day later, the cells were selected against 1 μg/ml blasticidine and 2 μg/ml puromycin. After two weeks, individual clones were lifted and tested for expression of tetracycline repressor. Positive clones were further tested for Mule shRNA expression. Clones were treated with 2 μg/ml tetracycline for 3 days. Cell extracts were collected and subjected to 6% SDS-PAGE and western blotting with anti-Mule monoclonal antibody. Clones with the best inducible knock down of Mule were chosen for further experiments. […] We then treated cells with their Mule level knocked down with several DNA damaging agents including UV-irradiation and two commonly used chemotherapeutic drugs etoposide and cisplatin. […] We therefore performed a detailed biochemical analysis in cells treated with this drug with or without Mule knocked down.

caspase-3 = assay: Caspase-3 activation (cleavage) and PARP cleavage after cisplatin treatment; assay type: cell-based, human
Description: We then treated cells with their Mule level knocked down with several DNA damaging agents including UV-irradiation and two commonly used chemotherapeutic drugs etoposide and cisplatin. […] We therefore performed a detailed biochemical analysis in cells treated with this drug with or without Mule knocked down.

U2OS cells [2] = assay: Colony growth 8 days after 6 hours of cisplatin treatment; assay type: cell-based, human; conditions: 6 hours treatment, 8 days culture
Description: To test whether the delayed apoptosis when Mule was knocked down has a long last effect, cells were switched to fresh medium after 6 hours of cisplatin treatment and continued culture for 8 days.

Mule (Homo sapiens) = target: T1, Mule (Homo sapiens); assay: In vitro Mcl-1 ubiquitination assay, reconstituted system, competition by BH3 peptides; assay type: biochemical; conditions: peptide at 4 μM
T1 construct: The cDNA of full-length human Mule was subcloned into Sal I and Not I sites of pFastBac-1; made in house; host or cells: Sf21 insect cells, baculovirus (pFastBac-1)
T1 sequence (Q07820 whole entry): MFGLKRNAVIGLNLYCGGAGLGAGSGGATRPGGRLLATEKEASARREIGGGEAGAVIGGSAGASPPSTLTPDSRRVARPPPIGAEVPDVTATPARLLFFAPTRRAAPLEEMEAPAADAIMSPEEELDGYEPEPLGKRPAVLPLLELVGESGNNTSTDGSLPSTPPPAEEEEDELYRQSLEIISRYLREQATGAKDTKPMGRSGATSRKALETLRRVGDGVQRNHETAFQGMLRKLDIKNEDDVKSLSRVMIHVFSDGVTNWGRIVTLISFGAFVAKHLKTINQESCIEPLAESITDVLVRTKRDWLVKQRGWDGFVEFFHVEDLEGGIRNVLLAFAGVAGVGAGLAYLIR
Description: (§1) In vitro Ubiguitination assay: In 15 ul reaction, 200 ng of recombinant Flag-Mcl-1 is incubated with an ATP regenerating system (50 mM Tris pH 7.6, 5 mM MgCl2, 2 mM ATP, 10 mM creatine phosphate, 3.5 U/ml of creatine kinase), 10 μg of Methyl-Ubiquitin, 10 ng human E1, 100 ng Ubch7, 2 μM of ubiquitin aldehyde, and 10 μg of S100 or designated fractions, at 37° C. for one hour. After terminating the reactions with SDS sample buffer, reaction products were fractionated by SDS-PAGE (10%) and analyzed by western blotting with anti-Flag M2 antibody during purification and anti-Mcl-1 when purified components were used.
We used methylated ubiquitin for further biochemical analysis because it gave clearer signal. Mule ubiquitinated Mcl-1 in a dose-dependent manner, and the ubiquitination activity relied on the presence of E1 and E2.
The members of Bcl-2 family of proteins containing only the BH3 domain use this domain to interact with other family members. If Mule also uses its BH3 domain to interact with Mcl-1, a peptide containing this domain should compete for Mule-Mcl-1 interaction therefore blocking Mcl-1 ubiquitination in the reconstituted system. To test this hypothesis, we synthesized a 26 amino acid Mule BH3-containing peptide and a mutant peptide in which four hydrophobic residues required for protein-protein interaction were switched with […] (4E).

Mcl-1 [3] = target: T2, Mcl-1 (Homo sapiens, UniProt Q07820); assay: Biotin-labeled BH3 peptide pull down from HeLa S100; assay type: binding; set-up: endogenous in cells; host or cells: HeLa S100
T2 sequence (Q07820 whole entry, the tested form may be a part): as the sequence (Q07820 whole entry) above
Description: (§2) To examine whether BH3 domain of Mule is sufficient for interaction with Mcl-1, we used a biotin-labeled version of the 26 amino acids Mule BH3 peptide (aa 1969-1994) and the 4E mutant to pull down proteins from cell extracts.

Bcl-2 = target: T3, Bcl-2 (Homo sapiens, UniProt P10415); assay: as above; assay type: binding
T3 construct: endogenous in cells; host or cells: HeLa S100
T3 sequence (P10415 whole entry): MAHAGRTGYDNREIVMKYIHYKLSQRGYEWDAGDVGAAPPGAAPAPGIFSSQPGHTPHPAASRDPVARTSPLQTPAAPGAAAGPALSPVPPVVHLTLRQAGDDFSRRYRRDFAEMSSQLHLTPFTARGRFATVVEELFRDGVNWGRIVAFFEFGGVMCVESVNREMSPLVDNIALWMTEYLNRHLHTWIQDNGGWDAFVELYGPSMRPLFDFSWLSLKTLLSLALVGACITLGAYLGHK
Description: as §2

Bcl-xL = target: T4, Bcl-xL (Homo sapiens, UniProt Q07817); assay: as above; assay type: binding
T4 construct: endogenous in cells; host or cells: HeLa S100
T4 sequence (Q07817 whole entry): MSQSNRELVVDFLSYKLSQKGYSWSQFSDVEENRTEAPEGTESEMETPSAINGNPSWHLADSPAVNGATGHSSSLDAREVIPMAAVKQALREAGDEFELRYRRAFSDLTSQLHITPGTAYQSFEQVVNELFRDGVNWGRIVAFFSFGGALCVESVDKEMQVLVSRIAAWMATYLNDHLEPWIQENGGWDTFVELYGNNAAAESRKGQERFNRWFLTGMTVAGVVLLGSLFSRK
Description: as §2

Bax = target: T5, Bax (Homo sapiens, UniProt Q07812); assay: as above; assay type: binding
T5 construct: endogenous in cells; host or cells: HeLa S100
T5 sequence (Q07812 whole entry): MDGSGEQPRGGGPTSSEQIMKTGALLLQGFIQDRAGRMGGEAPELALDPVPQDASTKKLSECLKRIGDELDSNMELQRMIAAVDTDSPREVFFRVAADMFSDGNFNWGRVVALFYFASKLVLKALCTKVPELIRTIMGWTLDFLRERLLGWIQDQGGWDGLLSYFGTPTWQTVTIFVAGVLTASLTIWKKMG
Description: as §2

Mcl-1 [4] = target: T2, Mcl-1; assay: In vitro Mcl-1 ubiquitination by purified recombinant Mule; assay type: biochemical; conditions: in the presence of E1, Ubch7 (E2), ATP regenerating system; ubiquitin, methylated or GST-tagged ubiquitin
Description: as §1
The cDNA of full-length human Mule was subcloned into Sal I and Not I sites of pFastBac-1 (Invitrogen). Mule expression baculovirus were prepared according to manufacture's manual (Bac-to-Bac Baculovirus expression system, Invitrogen, Carlsbad, Calif.). Insect cells Sf21 were infected with the P3 virus. The cells were harvested after 2 days of infection. Cell pellet was re-suspended in buffer A and homogenized with a glass douncer (pellet of 1 L culture of infected Sf21 cells was resuspended in 50 ml of buffer A). The homogenate was centrifuged at 100,000 g (SW28 rotor, 25,000 rpm) for 1 hr. The S100 (2 g total protein) were filtered and loaded onto Q column (hand-packed 36 ml of Q Sepharose XL beads). […]

Compound: CC(C)C[C@@H](C=O)NC(=O)[C@H](CC(C)C)NC(=O)[C@H](CC(C)C)NC(=O)OCc1ccccc1 [MG132] (Cbz-Leu-Leu-Leu-aldehyde)
- accumulation of higher molecular weight (polyubiquitinated) forms of Mcl-1 (proteasome): Higher molecular weight protein bands were detected
- amount of co-precipitated Mcl-1 and Mule (Mcl-1 and Mule): increased

Compound: N.N.[Cl][Pt][Cl] [cisplatin]
- ability to induce apoptosis among the DNA damaging agents (U2OS cells [1]; Mule knocked down): least ability to induce apoptosis
- cell death induced by the agent (U2OS cells [1]): reduced when Mule was knocked down
- start of (weak) caspase-3 activation after treatment (caspase-3; Mule knocked down): 8 h
- caspase-3 activation (caspase-3; Mule knocked down, 6 hours after treatment): did not see any caspase-3 activation
- start of caspase-3 activation after treatment (caspase-3; cells with Mule present): 4 h
- cleavage of PARP (caspase-3; with or without Mule knocked down): showed the same pattern
- colonies relative to cells containing Mule (U2OS cells [2]; Mule knocked down): more than nine fold more colonies
- colonies grown up (U2OS cells [2]; cells containing Mule): few if any colonies

Compound: COc1cc([C@@H]2c3cc4c(cc3[C@@H](O[C@@H]3O[C@@H]5CO[C@@H](C)O[C@H]5[C@H](O)[C@H]3O)[C@H]3COC(=O)[C@H]23)OCO4)cc(OC)c1O [etoposide]
- cell death induced by the agent (U2OS cells [1]): reduced when Mule was knocked down

Compound: Mule BH3 peptide: synthesized 26 amino acid Mule BH3-containing peptide (aa 1969-1994); biotin-labeled version used for pull down (PGVMTQEVGQLLQDMGDDVYQQYRSL; also: biotin-labeled (position not given here); UniProt Q7Z6Z7 1969-1994, looked up, fragment)
- block of Mcl-1 ubiquitination (Mule (Homo sapiens)): efficiently block Mcl-1 ubiquitination
- pull down of Mcl-1 (Mcl-1 [3]): specifically pulled down Mcl-1
- pull down of Bcl-2 (Bcl-2): not Bcl-xL, Bcl-2, and Bax
- pull down of Bcl-xL (Bcl-xL): not Bcl-xL, Bcl-2, and Bax
- pull down of Bax (Bax): not Bcl-xL, Bcl-2, and Bax

Compound: recombinant Mule: purified recombinant full-length human Mule protein, baculovirus-based expression system; Mcl-1 ubiquitin ligase E3
- stimulation of Mcl-1 ubiquitination (Mcl-1 [4]): able to stimulate Mcl-1 ubiquitination
